Results taken from PubChem BioAssay (NCI).
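Dose response: 5 concentrations. Exposure: 48 h. Format: 96-well plates. Endpoint: linear interpolation; highest concentration if not reached. GI50: concentration for 50% inhibition of growth. TGI: total growth inhibition.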

Legend:
Assay in all cases: NCI anticancer screen, dose series, 48 h
HCT-15 colon = test system: HCT-15 colon
HT29 colon = test system: HT29 colon
K-562 leukemia = test system: K-562 leukemia
NCI-H226 lung = test system: NCI-H226 lung
NCI-H460 lung = test system: NCI-H460 lung
PC-3 prostate = test system: PC-3 prostate
SF-295 CNS = test system: SF-295 CNS
U251 CNS = test system: U251 CNS
UACC-257 melanoma = test system: UACC-257 melanoma
UACC-62 melanoma = test system: UACC-62 melanoma

| SMILES | GI50 (HCT-15 colon) [µM] | TGI (HCT-15 colon) [µM] | GI50 (HT29 colon) [µM] | TGI (HT29 colon) [µM] | GI50 (K-562 leukemia) [µM] | TGI (K-562 leukemia) [µM] | GI50 (NCI-H226 lung) [µM] | TGI (NCI-H226 lung) [µM] | GI50 (NCI-H460 lung) [µM] | TGI (NCI-H460 lung) [µM] | GI50 (PC-3 prostate) [µM] | TGI (PC-3 prostate) [µM] | GI50 (SF-295 CNS) [µM] | TGI (SF-295 CNS) [µM] | GI50 (U251 CNS) [µM] | TGI (U251 CNS) [µM] | GI50 (UACC-257 melanoma) [µM] | TGI (UACC-257 melanoma) [µM] | GI50 (UACC-62 melanoma) [µM] | TGI (UACC-62 melanoma) [µM] |
| --- | --- | --- | --- | --- | --- | --- | --- | --- | --- | --- | --- | --- | --- | --- | --- | --- | --- | --- | --- | --- |
| C[C@@H](N)C1CCC(C(=O)Nc2ccncc2)CC1 (some centres not stated) | > 100 | > 100 | > 100 | > 100 | > 100 | > 100 | > 100 | > 100 | > 100 | > 100 | > 100 | > 100 | > 100 | > 100 | > 100 | > 100 | > 100 | > 100 | > 100 | > 100 |
| CCN(CC)CC.CCOc1ccc(NC(=O)N=C=[N-])cc1.[CH-]1CCCCC1.[CH-]1CCCCC1.[CH-]1CCCCC1.[Cl-].[Sn+4] | 0.0198 | 0.0555 | 0.022 | 0.0467 | 0.0171 | 0.463 | 0.0737 | 0.183 | 0.0279 | 0.575 | 0.0596 | 0.21 | 0.0521 | 0.149 | 0.0261 | 0.0718 | 0.0389 | 0.12 | 0.0228 | 0.0559 |
| COC(=O)C(Cc1cnc[nH]1)NC(=O)CNC(=O)CCCn1c(=O)c2c3ccccc3n(C)c2n2nnc(-c3ccccc3)c12 (configuration not stated) | > 100 | > 100 | > 100 | > 100 | > 100 | > 100 | > 100 | > 100 | > 100 | > 100 | 30.1 | > 100 | > 100 | > 100 | > 100 | > 100 | > 100 | > 100 | > 100 | > 100 |
| COc1c2c3ccccc3nc-2n(C)c2ccccc12 | 5.29 | 50.6 | 4.75 | > 100 | 11.5 | > 100 | 6.77 | 74.3 | 6.26 | 32.1 | 5.25 | 20.5 | 20.8 | > 100 | 7.81 | 32.7 | 21.9 | 55.6 | 11.1 | 33 |
| COc1ccccc1/C=C/C(=O)c1c(O)cc2occc2c1OC | > 100 | > 100 | > 100 | > 100 |  |  | 25.1 | > 100 | > 100 | > 100 | > 100 | > 100 | 16.6 | 55.6 | 18.9 | > 100 | > 100 | > 100 | 23.7 | > 100 |
| O=C(NCCc1ccccc1)C(c1ccccc1)(c1ccccc1)c1ccccc1 | 5.91 | > 100 |  |  | 44.9 | > 100 |  |  | 31.5 | > 100 | 31 | > 100 | 2.51 | 9.36 | 2.93 | 12.4 |  |  | 1.46 | 14.6 |
| Cc1ccc2c(c1)C(C)Cc1c(ncnc1-n1cnc3cc(C)ccc31)N2C (configuration not stated) | 0.0334 | 11.7 | 0.0302 | 0.195 | 0.034 | 16.5 | 0.0551 | 22.8 | 0.034 | 4.39 | 0.0434 | 16.5 |  |  | 0.0362 | 12.1 | 5.34 | 21.4 | 0.086 | 16.7 |
| O=C(CSc1nc2ccccc2nc1-c1ccccc1)Nc1ccc(Cl)cc1 | 76.7 | > 100 | 25.1 | > 100 |  |  | 16.7 | 51.1 | 11.8 | 36.8 | 30.6 | > 100 | 17.5 | 85.1 | 23.6 | 67.7 | > 100 | > 100 | 20.7 | > 100 |
| O=Nc1ccc(O)c2ccccc12 | 2.14 | 4.98 | 1.86 | 5.71 |  |  | 2.02 | 4.3 | 3.66 | 13.5 | 1.88 | 6.99 | 2.04 | 4.55 | 1.65 | 3.17 | 1.63 | 3.23 | 1.69 | 3.37 |
| CN(C)CCCNC(=O)c1ccc2oc3cc4ccccc4c(=O)n3c2c1 | 23.8 | > 50 | 15.4 | 46.8 | 33.8 | > 50 |  |  | 16.6 | > 50 | > 50 | > 50 | 33.7 | > 50 | 37.5 | > 50 | 20.6 | > 50 | > 50 | > 50 |
| CCC(=O)C1(c2ccccc2)CCN(C)CC1 |  | > 100 |  | > 100 |  | > 100 |  |  |  | > 100 |  | > 100 |  | > 100 |  | > 100 |  | > 100 |  |  |
